The source of these data is patent US20140171448A1, “USE OF NICOTINIC ACETYLCHOLINE RECEPTOR ALPHA 7 ACTIVATORS” (NOVARTIS AG, priority 2011, published 2014).

In data set [1] the target is T1, human neuronal nAChR α4β2 (Homo sapiens, UniProt P17787+P43681).
T1 construct: expressed in transfected cells; host or cells: human epithelial cell line (named a human embryonic kidney cell line)
Briefly: α4β2-nAChR functional assay in human epithelial cell line. It counts as cell-based. As to the method: To assess the activity of the compound of the invention on the human neuronal nAChR α4β2, a similar functional assay is carried out using a human epithelial cell line stably expressing the human α4β2 subtype (Michelmore et al., Naunyn-Schmiedeberg's Arch.

Data set [2] in a line: Oral bioavailability and brain penetration in mice. In kind it is in vivo. The settings on record: 30 μmol/kg p.o. As to the method:
Compounds were orally (30 μmol/kg) administered. Male mice (30-35g, OF1/ICstrain) were sacrificed at indicated time points after oral administration. Trunk-blood was collected in EDTA-containing tubes and the brain was removed and immediately frozen on dry ice.
To 100 μl plasma 10 μl internal standard (1.0 pmol of a compound with solubility and ionization properties similar to test compounds) was added and extracted three times with 500 μl dichloromethane. The combined extracts were then dried under a stream of nitrogen and re-dissolved in 100 μl acetonitrile/water (70% acetonitrile). Brains were weighed and homogenized in water (1:5 w/v). Two 100 μl aliquots of each homogenate+10 μl of internal standard (same standard as used for the plasma samples) were extracted three times with 500 μl dichloromethane and further processed as the plasma samples. Samples were separated on Beckmann high-performance liquid chromatography equipment system with an autosampler (Gilson 233XL).
The limit of detection (LOD), defined as the lowest concentration of the extracted standard sample with a signal to noise ratio of ˜3.

Data set [3] concerns parkinsonian primates. In words: Antidyskinetic effect in parkinsonian primates (MPTP, levodopa-induced dyskinesia). In kind it is in vivo, cynomolgus monkeys (Macaca fascicularis). Particulars: with levodopa. As to the method: Female ovariectomized cynomolgus monkeys (Macaca fascicularis) are used in the assessment. The animals can be rendered parkinsonian by continuous infusion of 1-methyl-4-phenyl-1,2,3,6-tetrahydropyridine (MPTP) until they develop a stable parkinsonian syndrome. After recuperation, animals are treated daily with levodopa until clear and reproducible dyskinesias are developed.
Monkeys are observed through a one-way screen window in their home cage. They are observed and scored repeatedly at baseline and after a standard s.c. dose of levodopa. Locomotor activity is assessed and followed with an electronic monitoring system. Antiparkinsonian responses are evaluated by measuring the locomotor activity and a Parkinson disability scale (see Hadj Tahar A et al, Clin Neuropharmacol 2000; 23:195-202; and Samadi P et al, Neuropharmacology 2003; 45:954-963). Dyskinesias are closely monitored and scored according to a dyskinesia rating scale (also described in Hadj Tahar A et al; and Samadi P et al) every 15 minutes until the end of the effect. The doses of levodopa are chosen to induce motor activation and reproducible dyskinesia but no excessive agitation.
Monkeys are observed for at least two hours following an oral administration of vehicle. On a subsequent day, the dose of levodopa selected is tested once. The animals are observed (with measures of parkinsonian and dyskinetic scores) for the entire duration of the levodopa effect and are also monitored for locomotor activity. This provides vehicle control values as well as levodopa antiparkinsonian and dyskinesia response data for comparison with combinations of a α7-nAChR agonist/positive allosteric modulator and levodopa. The monkeys are then tested with a α7-nAChR agonist/positive allosteric modulator in combination with a fixed dose of levodopa. A suspension for oral administration of the α7-nAChR agonist/positive allosteric modulator is administered before levodopa. After each dose, the animals are observed (with measures of parkinsonian and dyskinetic scores) for the entire duration of effect and monitored for locomotor activity or any change in behavior (e.g. circling, excitement, lethargy and sleepiness).
Using this protocol, compound A-1 at a dose of 20 mg/kg was tested. Results based on five monkeys (levodopa/benserazide doses: 22.5/50 mg; 65/50 mg; 30/50 mg; 35/50 mg; and 25/50 mg) are shown in FIGS. 1-4.

Where only a bound is given, the exact number is not on record here.

T1 sequence (P43681 29-627 limits assumed): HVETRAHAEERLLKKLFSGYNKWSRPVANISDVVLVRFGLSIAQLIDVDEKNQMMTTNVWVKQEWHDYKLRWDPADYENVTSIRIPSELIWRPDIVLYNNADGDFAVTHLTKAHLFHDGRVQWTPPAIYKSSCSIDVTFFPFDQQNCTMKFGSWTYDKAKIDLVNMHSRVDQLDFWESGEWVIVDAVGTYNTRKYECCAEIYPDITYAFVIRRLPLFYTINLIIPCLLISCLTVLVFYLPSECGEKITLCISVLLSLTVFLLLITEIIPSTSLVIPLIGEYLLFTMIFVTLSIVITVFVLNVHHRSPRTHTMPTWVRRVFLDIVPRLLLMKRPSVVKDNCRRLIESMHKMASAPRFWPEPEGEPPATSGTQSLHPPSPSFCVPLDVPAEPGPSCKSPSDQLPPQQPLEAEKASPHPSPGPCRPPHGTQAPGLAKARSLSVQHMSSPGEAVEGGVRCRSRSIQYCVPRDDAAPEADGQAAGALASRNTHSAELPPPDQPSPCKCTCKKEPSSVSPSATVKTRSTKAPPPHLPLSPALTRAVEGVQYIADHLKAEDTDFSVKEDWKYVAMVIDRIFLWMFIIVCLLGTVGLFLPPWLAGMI
T1 sequence (P17787 26-502): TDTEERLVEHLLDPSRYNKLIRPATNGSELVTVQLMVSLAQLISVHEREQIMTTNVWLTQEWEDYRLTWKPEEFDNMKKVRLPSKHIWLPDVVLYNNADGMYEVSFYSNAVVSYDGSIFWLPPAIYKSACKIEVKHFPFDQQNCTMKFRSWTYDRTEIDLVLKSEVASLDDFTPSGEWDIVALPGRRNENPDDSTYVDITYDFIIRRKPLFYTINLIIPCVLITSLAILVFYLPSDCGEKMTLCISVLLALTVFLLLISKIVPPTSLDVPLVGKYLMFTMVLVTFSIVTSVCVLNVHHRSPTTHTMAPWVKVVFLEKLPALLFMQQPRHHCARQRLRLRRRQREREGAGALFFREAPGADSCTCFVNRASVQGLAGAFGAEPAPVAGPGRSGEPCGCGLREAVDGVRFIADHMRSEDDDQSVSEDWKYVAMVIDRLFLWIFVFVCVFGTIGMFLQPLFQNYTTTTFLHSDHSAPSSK

Usually EC50 stands for the concentration that produces a half-maximal response. A lower EC50 goes with higher potency in that assay. In data set [1], `C[C@H](OC(=O)N[C@@H]1CN2CCC1CC2)c1ccccc1F` [A-1, (S)-(1-aza-bicyclo[2.2.2]oct-3-yl)-carbamic acid (S)-1-(2-fluoro-phenyl)-ethyl ester] yielded a 50% effective concentration (EC50) greater than 100 µM. For the same compound, in data set [2] (4 hour), the “Brain (pmoles/g ± SD)” value is 101.6 ± 39.6 pmol/g. Besides, the concentration at 0.5 h in data set [2] (male, OF1/IC, mouse, plasma, po, 0.5 hour, read-out: Plasma (pmoles/ml ± SD)) was found to be 635 ± 261 pmol/mL. Further, the concentration at 1 h in data set [2] (male, OF1/IC, mouse, plasma, po, 1 hour, read-out: Plasma (pmoles/ml ± SD)) came out at 685 ± 340 pmol/mL. In addition, the concentration at 2 h in data set [2] (male, OF1/IC, mouse, plasma, po, 2 hour, read-out: Plasma (pmoles/ml ± SD)) was 168 ± 91.3 pmol/mL. The concentration at 4 h in data set [2] (male, OF1/IC, mouse, plasma, po, 4 hour, read-out: Plasma (pmoles/ml ± SD)) worked out at 85 ± 54.3 pmol/mL. The concentration at 6 h in data set [2] (male, OF1/IC, mouse, plasma, po, 6 hour, read-out: Plasma (pmoles/ml ± SD)) worked out at 29.5 ± 13.8 pmol/mL. Moreover, in data set [2] (male, OF1/IC, mouse, plasma, po, 24 hour, read-out: Plasma (pmoles/ml ± SD)), the concentration at 24 h turned out to be 3.8 ± 0.6 pmol/mL. Moreover, in data set [3], the “effect on antiparkinsonian activity of levodopa” value was “does not lower the antiparkinsonian activity of levodopa”, the “effect on duration of the antiparkinsonian activity of levodopa” value is “significantly increases the duration of the antiparkinsonian activity seen for levodopa administration”, the “effect on levodopa-induced dyskinesia” value is “significantly reduces levodopa-induced dyskinesia” and the “effect on onset of action of levodopa” value is “does not delay the onset of action of levodopa”.
